Results on 24 compounds are retold here after US20140205553A1, “AGENT FOR ENHANCING THE EFFECT OF SKIN-WHITENING INGREDIENTS AND USES THEREOF” (Hayashibara Co., Ltd., priority 2010, published 2014).

Read-outs that look alike come from different tables or passages of the source.

In this assay the test system is mouse B16 melanoma cells. In words: Melanin formation by mouse B16 melanoma cells cultured with test samples (melanin content, absorbance 450 nm). The format is cell-based. The method, then: The effect of nucleic-acid-related compounds on melanin-formation inhibition was evaluated by using mouse B16 melanoma cells frequently used as an index for evaluating skin-whitening agents used in external dermatological agents. Since nucleic-acid-related compounds are roughly classified into purine and pyrimidine compounds, the following respective representative compounds were used as test samples. […] Thereafter, cells were collected after adding trypsin-EDTA to each well and subjecting the resultant to centrifugation. The collected cells were washed once with Dulbecco's PBS (-) (abbreviated as “D-PBS”, hereinafter) and centrifuged to remove the supernatant. To the remaining cell pellet was added 0.5 ml of 1N sodium hydroxide to solubilize the cells. The resulting alkali-solubilized solution was boiled for 30 min and determined for melanin content by the following method. […] Each of these wells was assayed for melanin content similarly as above. […] In this and the following experiments, it means that the lower the melanin formation percentage, the higher the melanin-formation inhibitory effect, i.e., the skin-whitening effect.

Where [1] appears, read: Mus musculus, B16, 120 h, molar ratio guanine:adenine or equol 0:1, total concentration 5 μM, read-out: Melanin formation percentage.
The mark [2] stands for this setting: Mus musculus, B16, 120 h, test sample 1 μM in liquid culture medium, 5 days, negative control = 100, read-out: Melanin formation percentage.
Setting [3] is: Mus musculus, B16, 120 h, test sample 5 μM in liquid culture medium, 5 days, negative control = 100, read-out: Melanin formation percentage.
[4] abbreviates: test sample 1 μM in liquid culture medium, 5 days, negative control = 100.
The mark [5] stands for this setting: test sample 5 μM in liquid culture medium, 5 days, negative control = 100.
The mark [6] stands for this setting: test sample 10 μM in liquid culture medium, 5 days, negative control = 100.
Setting [7] is: test sample 20 μM in liquid culture medium, 5 days, negative control = 100.
[8] abbreviates: Mus musculus, B16, 120 h, test sample 2.5 μM in liquid culture medium, 5 days, negative control = 100, read-out: Melanin formation percentage.
Where [9] appears, read: Mus musculus, B16, 120 h, test sample 10 μM in liquid culture medium, 5 days, negative control = 100, read-out: Melanin formation percentage.
Setting [10] is: Mus musculus, B16, 120 h, test sample 20 μM in liquid culture medium, 5 days, negative control = 100, read-out: Melanin formation percentage.
[11] abbreviates: Experiment 1, test sample 10 μM.
Setting [12] is: Experiment 2, test sample 5 μM alone.

As for `Oc1ccc([C@H]2COc3cc(O)ccc3C2)cc1` [Equol, equol], the activity at 5 µM amounted to 91% under setting [1] and 67% under setting [3]. For the same compound, the activity at 1 µM under setting [2] was found to be 91%. For the same compound, where the note is “skin-whitening ingredient together with guanine including derivatives or other nucleic-acid-related compound”, the “Enhancement of the skin-whitening (melanin-formation-inhibitory) action in combination (in words)” value is “enhanced”.
For the compound `OC[C@H]1O[C@H](Oc2ccc([C@H]3COc4cc(O)ccc4C3)cc2)[C@H](O)[C@@H](O)[C@@H]1O` [4′-Glucosyl-S-equol, 4′-O-α-D-glycopyranosyl-S-equol], the Melanin formation percentage by setting is: under setting [4], 85%; under setting [5], 74%.
Consider glucosylguanosine, for which the Melanin formation percentage was found to be 99% under setting [4]; 98% (test sample 2.5 μM in liquid culture medium, 5 days, negative control = 100); 98% under setting [5]; 99% under setting [6]; 99% under setting [7].
On to `Nc1nc2c(ncn2[C@@H]2O[C@H](CO)[C@@H](O)[C@H]2O)c(=O)[nH]1` [Guanosine, guanosine], for which the activity at 1 µM under setting [2] came out at 99%. In addition, the activity at 2.5 µM under setting [8] was found to be 98%. Moreover, the activity at 5 µM under setting [3] amounted to 98%. For the same compound, the activity at 10 µM under setting [9] was found to be 102%. In addition, the activity at 20 µM under setting [10] was found to be 97%.
Take `O=c1cc(CO)occ1O` [Kojic acid, reference compound]: the activity at 500 µM (Mus musculus, B16, 120 h, test sample 500 μM in liquid culture medium, 5 days, negative control = 100, read-out: Melanin formation percentage) was determined as 71%. Moreover, the activity at 1000 µM (Mus musculus, B16, 120 h, test sample 1000 μM in liquid culture medium, 5 days, negative control = 100, read-out: Melanin formation percentage) is 49%. Also, where the note is “Mus musculus, B16, 120 h, test sample 2000 μM in liquid culture medium, 5 days, negative control = 100, read-out: Melanin formation percentage”, the activity at 2000 µM worked out at 30%. Further, the “Melanin-formation-inhibitory action of the test sample alone (in words)” value (at the concentrations used in the experiment) is reported as “inhibited the melanin formation by mouse B16 melanoma cells in a concentration dependent manner”.
Take `OC[C@H]1O[C@H](Oc2ccc3c(c2)OC[C@H](c2ccc(O)cc2)C3)[C@H](O)[C@@H](O)[C@@H]1O` [7-Glucosyl-S-equol, 7-O-α-D-glycopyranosyl-S-equol]: the Melanin formation percentage reads like this: under setting [4], 85%; under setting [5], 75%.
Turning to `Oc1ccc([C@@H]2COc3cc(O)ccc3C2)cc1` [R-Equol, R-equol], the Melanin formation percentage was 94% under setting [4] and 77% under setting [5].
With `Nc1ncnc2c1ncn2[C@@H]1O[C@H](CO)[C@@H](O)[C@H]1O` [Adenosine, adenosine], under setting [8], the activity at 2.5 µM was 98%. Moreover, the activity at 5 µM under setting [3] stood at 94%. In addition, the activity at 10 µM under setting [9] was found to be 71%. Further, under setting [10], the activity at 20 µM was 48%.
In the case of `Nc1nc2nc[nH]c2c(=O)[nH]1` [Guanine], the “Melanin-formation inhibition (in words)” value was “no melanin-formation inhibition was observed” under setting [11] and “No melanin-formation inhibition was found” under setting [12]. For the same compound, the activity at 5 µM (Mus musculus, B16, 120 h, read-out: Melanin formation percentage, molar ratio guanine:adenine or equol 1:0, total concentration 5 μM) was 98% and the activity at 5 µM (Mus musculus, B16, 120 h, read-out: Melanin formation percentage, test sample 5 μM in liquid culture medium, 5 days, negative control = 100) amounted to 98%. The activity at 1 µM (Mus musculus, B16, 120 h, read-out: Melanin formation percentage, test sample 1 μM in liquid culture medium, 5 days, negative control = 100) is 100%. The activity at 2.5 µM (Mus musculus, B16, 120 h, read-out: Melanin formation percentage, test sample 2.5 μM in liquid culture medium, 5 days, negative control = 100) was found to be 99%. Further, for the setting “Mus musculus, B16, 120 h, read-out: Melanin formation percentage, test sample 10 μM in liquid culture medium, 5 days, negative control = 100”, the activity at 10 µM was found to be 98%. Moreover, under “Mus musculus, B16, 120 h, read-out: Melanin formation percentage, test sample 20 μM in liquid culture medium, 5 days, negative control = 100”, the activity at 20 µM came out at 101%.
Turning to `O=c1[nH]c(=O)c2[nH]cnc2[nH]1` [Xanthine, reference compound], the “Melanin-formation inhibition (in words)” value reads like this: under setting [11], “no melanin-formation inhibition was observed”; under setting [12], “No melanin-formation inhibition was found”. Moreover, the activity at 5 µM under setting [3] stood at 100%. Moreover, the activity at 10 µM under setting [9] came out at 100%.
In the case of `Nc1ncnc2c1ncn2[C@@H]1O[C@H](COP(=O)(O)OP(=O)(O)O)[C@@H](O)[C@H]1O` [Adenosine 5′-diphosphate, adenosine 5′-diphosphate], under setting [3], the activity at 5 µM was determined as 93%. Under setting [9], the activity at 10 µM turned out to be 81%. Moreover, the activity at 20 µM under setting [10] amounted to 51%.
Consider `Nc1cc[nH]c(=O)n1` [Cytosine, reference compound], for which the “Melanin-formation inhibition (in words)” value is listed as “no melanin-formation inhibition was observed” under setting [11] and “No melanin-formation inhibition was found” under setting [12]. Moreover, the activity at 5 µM under setting [3] is 98%. Under setting [9], the activity at 10 µM worked out at 100%.
As for `Nc1nc2c(ncn2[C@@H]2O[C@H](COP(=O)(O)OP(=O)(O)OP(=O)(O)O)[C@@H](O)[C@H]2O)c(=O)[nH]1` [Guanosine 5′-triphosphate, guanosine 5′-triuphosphate], the Melanin formation percentage under setting [5] came out at 95%, the Melanin formation percentage under setting [6] turned out to be 98% and the Melanin formation percentage under setting [7] is on record as 97%.
As to `Nc1ncnc2c1ncn2[C@@H]1O[C@H](COP(=O)(O)O)[C@@H](O)[C@H]1O` [Adenosine 5′-monophosphate, adenosine 5′-monophosphate], under setting [8], the activity at 2.5 µM was 97%. The activity at 5 µM under setting [3] is 100%. For the same compound, the activity at 10 µM under setting [9] worked out at 82%. Moreover, the activity at 20 µM under setting [10] was found to be 60%.
`Cc1c[nH]c(=O)[nH]c1=O` [Thymine, reference compound]: the “Melanin-formation inhibition (in words)” value runs as follows: under setting [11], “no melanin-formation inhibition was observed”; under setting [12], “No melanin-formation inhibition was found”. Also, the activity at 5 µM under setting [3] came to 99%. Moreover, under setting [9], the activity at 10 µM is 97%.
As for `Nc1ncnc2c1ncn2[C@@H]1O[C@H](COP(=O)(O)OP(=O)(O)OP(=O)(O)O)[C@@H](O)[C@H]1O` [Adenosine 5′-triphosphate, adenosine 5′-triphosphate], the activity at 5 µM under setting [3] was found to be 93%. Besides, under setting [9], the activity at 10 µM came to 80%. The activity at 20 µM under setting [10] stood at 53%.
As to glucosyladenosine, the Melanin formation percentage under setting [5] was determined as 89%, the Melanin formation percentage under setting [6] was determined as 63% and the Melanin formation percentage under setting [7] is 43%.
Turning to `O=c1cc[nH]c(=O)[nH]1` [Uracil, reference compound], the “Melanin-formation inhibition (in words)” value runs as follows: under setting [11], “no melanin-formation inhibition was observed”; under setting [12], “No melanin-formation inhibition was found”. Besides, under setting [3], the activity at 5 µM is 98%. For the same compound, the activity at 10 µM under setting [9] amounted to 99%.
Taken in the same sequence, the figures for `O=c1[nH]cnc2nc[nH]c12` [Hypoxanthine, reference compound] were “no melanin-formation inhibition was observed”, “No melanin-formation inhibition was found”, 97% and 97%.
For `Nc1nc2c(ncn2[C@@H]2O[C@H](COP(=O)(O)O)[C@@H](O)[C@H]2O)c(=O)[nH]1` [Guanosine 5′-monophosphate, guanosine 5′-monophosphate], the activity at 1 µM under setting [2] was determined as 99%. Moreover, the activity at 2.5 µM under setting [8] is 99%. Besides, the activity at 5 µM under setting [3] amounted to 100%. Also, the activity at 10 µM under setting [9] was 101%. Besides, the activity at 20 µM under setting [10] is 101%.
`OC[C@H]1O[C@@H](n2cnc3c(O)ncnc32)[C@H](O)[C@@H]1O` [Inosine, reference compound]: the “Melanin-formation inhibition (in words)” value is, setting by setting: under setting [11], “no melanin-formation inhibition was observed”; under setting [12], “No melanin-formation inhibition was found”. The activity at 5 µM under setting [3] came to 98%. For the same compound, the activity at 10 µM under setting [9] turned out to be 96%.
For the compound `Nc1ncnc2nc[nH]c12` [Adenine], under setting [11], the “Melanin-formation inhibition (in words)” value is given as “inhibited”. For the same compound, the activity at 5 µM is, setting by setting: under setting [1], 83%; under setting [3], 83%. For the same compound, the activity at 2.5 µM under setting [8] was determined as 95%. In addition, the activity at 10 µM under setting [9] is 60%. Also, the activity at 20 µM under setting [10] was found to be 39%.
Regarding `Oc1ccc([C@H]2COc3cc(O)ccc3C2)cc1` [S-Equol, S-equol], the Melanin formation percentage is, setting by setting: under setting [4], 86%; under setting [5], 60%.
As for `Nc1nc2c(ncn2[C@@H]2O[C@H](COP(=O)(O)OP(=O)(O)O)[C@@H](O)[C@H]2O)c(=O)[nH]1` [Guanosine 5′-diphosphate, guanosine 5′-diphosphate], under setting [3], the activity at 5 µM worked out at 93%. Further, under setting [9], the activity at 10 µM came out at 100%. For the same compound, the activity at 20 µM under setting [10] worked out at 95%.
